# From paper PMC11304238, “Formulate Adaptive Biphasic Scaffold via Sequential Protein‐Instructed Peptide Co‐Assembly” (Advanced Science, 2024)
# Where a SMILES comes first, the peptide text is derived from it. [ ]: non-standard residue; d: D form. The star is where a group is joined. Acetyl(2-naphthyl) = O=C(Cc1ccc2ccccc2c1)*; pY = N[C@@H](Cc1ccc(OP(=O)(O)O)cc1)C(=O)O
# Experiments:
# hMSCs [1] = assay: hMSC biocompatibility (viability, caspase 3/7, Ki67); format: cell-based, human; conditions: 3-day treatment at various concentrations (25 to 500 µM), basal medium, WST-1 viability, caspase 3/7 and Ki67 at 200 µM, n = 3
# Description: (§1) Cells were seeded onto a 96‐well flat‐bottom tissue culture plate (Corning, Falcon) at a density of 0.5 × 10^4 cells cm^−2 and incubated overnight to facilitate cell adhesion. The medium was then replaced with osteogenic medium containing various peptide compounds at concentrations ranging from 25 to 500 µM. As a control, cells were cultured in osteogenic medium supplemented with an equal volume of PBS. Subsequently, the cells were cultured for an additional 72 h, after which their viability was assessed using a WST‐1 assay kit (Roche Diagnostics, IN).
# Figure S12. Chemical structure of peptide P6.
# Figure S13. Chemical structure of peptide P7.
# Figure S14. 3-day hMSCs viability upon the treatment of peptides P1, P2, P3, and control peptides P5, 1:1 mixture of P6/P7 at various concentrations in basal medium (mean ± SD, n = 3).
# Figure S15. Bright field images and fluorescence images of hMSCs upon the treatment of peptides P1, P2, P3, and control peptides P5, 1:1 mixture of P6/P7 at 200 µM in basal medium for 3 days and stained with caspase 3/7 (green). […]
# Figure S16. (a) Fluorescence images of hMSCs upon the treatment of peptides P1, P2, P3, and control peptides P5, 1:1 mixture of P6/P7 at 200 µM in basal medium for 3 days and co-stained with hochest (blue) and Ki67 (red). […] (b) Quantification of Ki67 positive ratio in hMSCs upon the treatments of panel a (mean ± SD, n = 3). […]
# hMSCs [2] = format: cell-based, human; conditions: hMSCs pre-cultured 3 days with P3, P5 or P6/P7 (200 µM), then 3 days P4 at various concentrations, osteogenic medium, n = 3
# Description: as §1
# Figure S22. […]
# Figure S23. Bright field images and fluorescence images of hMSCs upon the treatment of peptides P3, P5, and mixture of P6/P7 at a concentration of 200 µM for 3 days, followed with another 3-day treatment of P4 at a concentration of 200 µM in osteogenic medium. ‘Undifferentiated’ represents cell cultured in basal medium; ‘Ctrl’ represents cell cultured in osteogenic medium upon the treatment of 1xPBS buffer. […]
# Figure S24. (a) Fluorescence images of hMSCs upon the treatment of peptides P3, P5, and mixture of P6/P7 at a concentration of 200 µM for 3 days, followed with another 3-day treatment of P4 at a concentration of 200 µM in osteogenic medium. ‘Undifferentiated’ represents cell cultured in basal medium; ‘Ctrl’ represents cell cultured in osteogenic medium upon the treatment of 1xPBS buffer. […]
SMILES,biocompatibility with hMSCs (hMSCs [1]),cytotoxicity of P4 on pre-cultured hMSCs (hMSCs [2])
"CC[C@H](C)[C@H](NC(=O)[C@H](CC(C)C)NC(=O)[C@H](CC(C)C)NC(=O)[C@H](CCCCN)NC(=O)[C@@H](NC(=O)[C@H](Cc1ccccc1)NC(=O)[C@H](Cc1ccccc1)NC(=O)[C@H](Cc1ccccc1)NC(=O)[C@H](CCCNC(=N)N)NC(=O)[C@H](CO)NC(=O)[C@H](CCCNC(=N)N)NC(=O)[C@@H](N)CCCCN)[C@@H](C)CC)C(=O)O [P3, KRSRFFFIKLLI] (H-KRSRFFFIKLLI-OH)",good biocompatibility,–
"O=C(O)CC[C@H](NC(=O)[C@H](Cc1ccc(OP(=O)(O)O)cc1)NC(=O)[C@H](Cc1ccccc1)NC(=O)[C@H](Cc1ccccc1)NC(=O)Cc1ccc2ccccc2c1)C(=O)O [P4, NapFFYpE] ({Acetyl(2-naphthyl)}-FF[pY]E-OH)",–,no cytotoxicity
"O=C(Cc1ccc2ccccc2c1)N[C@@H](Cc1ccccc1)C(=O)N[C@@H](Cc1ccccc1)C(=O)O [P5, NapFF]",good biocompatibility,–
